The text below walks through data of patent publication US5773522A, “Polymer-bound camptothecin derivatives” (priority 1993, dated 1998).

As a reminder, the LD50 is the dose expected to kill half of the subjects tested.

Data set [1] has as its system advanced M5076 murine reticulosarcoma. The experiment in a line: Antitumor activity against advanced M5076 murine reticulosarcoma. It counts as in vivo, C57Bl/6 mice. The settings on record: iv on day 16,20,24,28,31,35; for % tumor inhibition: estimated at day 34. As to the method:
(§1) Camptothecin (CPT) was dissolved in sterile water with 10% tween.
(§2) Treatment was administered i.v. in a volume of 10 ml/kg of body weight and control mice were treated with sterile water.
(§3) M5076 muine reticulosarcoma was maintained by serial i.m. passages and transplanted s.c. (5×10^5 cells/mouse) in compatible C57Bl/6 mice.
(§4) All animals were from Charles River Calco, Como, Italy.
(§5) Ten mice/group for conventional and eight for athymic mice were used.
(§6) The conventional mice weighed 20 to 22 g and were kept under standard laboratory conditions.
(§7) The mouse colony was routinely tested for the absence of antibodies to a panel of pathogens including Mouse Hepatitis, Sendai Virus and Mycoplasma Pulmonis.
(§8) Tumor growth was assesed by caliper measurement and the tumor weight estimated according to Geran et al. (see: Cancer Chem.Rep., Part 3, 3 (2) ed. 3, pp 1-103, 1972). The antitumor activity is expressed as percentage of inhibition of tumor growth (%T/I) using the following formula: [formula] The median increase in survival time (T/C%) was calculated using the following formula: [formula]
(§9) Toxicity was evaluated on the basis of the body weight reduction and gross autopsy findings, mainly in terms of reduction of spleen and liver size.

Data set [2] is described as follows: Toxicity (LD10, LD50) in healthy mice. The format is in vivo, C57Bl/F mice. The conditions noted are these: mouse, in vivo, iv, healthy C57B1/F mice; read-out: LD50 (dose inducing 50% of death mice).
Data set [3] concerns healthy C57Bl/F mice. The experiment in a line: Toxicity (LD10, LD50) in healthy mice. The format is in vivo. The settings on record: i.v., healthy C57B1/F mice.
The subject of data set [4] is HT29/Colon Carcinoma. The experiment in a line: Antitumor activity in athymic mice transplanted s.c. with HT29 Colon Carcinoma. It counts as in vivo, athymic Swiss/nu/ mice. The conditions noted are these: for % tumor inhib. / TOX (number of toxic deaths/total number of mice) / cured mice (tumor free mice 90 days after tumor implant): 7.5 mg/kg (CPT equivalent), iv q4dx6. As to the method:
as §1, §2
HT29 Colon Carcinoma was transplanted s.c. in athymic Swiss/nu/ mice using 15-20 mg of tumor brei.
as §4, §5, §7, §8
Cured mice are mice without tumor at the end of the experiment.
as §9

Data set [5] deals with early M5076 murine reticulosarcoma. The experiment in a line: Antitumor activity against early M5076 murine reticulosarcoma. The settings on record: 7.5 mg/kg (CPT equivalent); for % tumor inhib.: estimated one week after the last treatment. The format is in vivo, C57Bl/6 mice. As for the experimental part:
Camptothecin (CPT) was dissolved in sterile water with 10% tween. […]
as §3, §4, §5, §6, §7, §8, §9

For data set [6] the following is noted: background statement; cited from earlier work.
A short description of data set [7]: Water solubility. It counts as physicochemical. The conditions noted are these: dissolved in saline.
The nature of data set [8]: Stability of polymeric conjugates in murine or human plasma (camptothecin release). The format is in vitro ADME. As to the method:
Each sample was extracted by adding 100 μl of 0.25M phosphoric acid, 500 μl CH3 CN and 700 μl ethyl acetate and vigorously shaking for 20 minutes at 4° C. After that time, the sample was spun at 15000×g for 10 minutes and the supernatant was separated. To the residue was added 300 μl of CH3 CN and 500 μl was spun at 15000×g for 10 minutes. The supernatant was separated. The organic phases were pooled and evaporated using a high vacuum centrifuge. The sample was recovered by adding 500 μl of MeOH/water pH2 (70/30 by volume) and injected into HPLC apparatus for determining the total drug percentage content.

Consider `CC[C@@]1(O)C(=O)OCc2c1cc1n(c2=O)Cc2cc3ccccc3nc2-1` [CPT, camptothecin], for which, in data set [1] (7.5 mg/kg (CPT equivalent)), the “T/C % (median increase in survival time)” value turned out to be 173%, the “TOX (number of toxic deaths/total number of mice)” value was 0/10 and the “% tumor inhibition” value is reported as 72%. In addition, the median lethal dose (LD50) in data set [2] is 43.4 mg/kg. For the same compound, in data set [3], the “LD10 (dose inducing 10% of death mice)” value is 16.9 mg/kg. Further, in data set [4], the “% tumor inhib.” value was 83%, the “TOX (number of toxic deaths/total number of mice)” value is given as 0/10 and the “cured mice (tumor free mice 90 days after tumor implant)” value is 0/10. Further, in data set [5] (ip 1,6,9), the “T/C % (median increase in survival time)” value amounted to 165%, the “TOX (number of toxic deaths/total number of mice)” value is given as 0/10 and the “% tumor inhib.” value is given as 100%. In data set [6], the “solubility in vehicles suitable for parenteral administration (in words)” value was “practically insoluble”.

For “Copolymer of N-(2-hydroxypropyl)methacrylamide, 20-O-[N-methacryloylglycyl -L-phenylalanyl-L-leucylglycyl] camptothecin and N-(2-hydroxypropyl) methacryloylglycinamide [Compound A2]”, in data set [1] (10.0 mg/kg (CPT equivalent)), the “T/C % (median increase in survival time)” value stood at 174%, the “TOX (number of toxic deaths/total number of mice)” value is 0/10 and the “% tumor inhibition” value is given as 80%. For the same compound, in data set [1] (15.0 mg/kg (CPT equivalent)), the “T/C % (median increase in survival time)” value was 183%, the “TOX (number of toxic deaths/total number of mice)” value is 0/10 and the “% tumor inhibition” value is given as 95%. Further, the “water solubility (in words)” value in data set [7] is listed as “highly water soluble”. In addition, in data set [4], the “% tumor inhib.” value is on record as 96%, the “TOX (number of toxic deaths/total number of mice)” value is listed as 0/18 and the “cured mice (tumor free mice 90 days after tumor implant)” value is given as 3/18. The “antitumor activity compared with camptothecin (in words)” value in data set [4] (all experiments (HT29, early and advanced M5076)) was “striking higher activity”. Also, the “camptothecin released after plasma incubation” value (from here on “camptothecin released”) in data set [8] (after 60 hours) is reported as 100%. Besides, in data set [5] (iv 1,6,9), the “T/C % (median increase in survival time)” value turned out to be 171%, the “TOX (number of toxic deaths/total number of mice)” value was 0/10 and the “% tumor inhib.” value is given as 100%.

Turning to “Copolymer of N-(2-hydroxypropyl)methacrylamide, 20-O-[N-methacryloylglycyl-(6-aminohexanoylyl]camptothecin and N-(2-hydroxy -propyl)methacryloylglycinamide [Al]”, in data set [8] (after 120 hours), the “camptothecin released” value turned out to be 10%.

Consider “Copolymer of N-(^2 -hydroxypropyl)methacrylamide) 9-amino-20-O-[N-methacryloylglycyl-L-phenylalanyl-L-leucylglycyl] campto-thecin and N-(2-hydroxypropyl)methacryloylalycinamide [Compound A3]”, for which the “camptothecin released” value in data set [8] (after 50 hours) is listed as 100%.
